Test: UV absorption spectrum in ethanol
Format: physicochemical
Conditions: for UV E1% / UV εmax: at λmax

| SMILES | UV λmax [nm] | UV E1% | UV εmax |
| --- | --- | --- | --- |
| C[Si](C)(C)COC(=O)C(=CC=C(c1ccccc1)c1ccccc1)C(=O)OC[Si](C)(C)C [Example 1] | 333 | 614 | 28 610 |
| CCOC(=O)/C(=C/C=C(c1ccccc1)c1ccccc1)C(=O)OC[Si](C)(C)C [Example 2] | 334 | 692 | 28 270 |
| C[Si](C)(C)COC(=O)/C(C#N)=C\C=C(c1ccccc1)c1ccccc1 [Example 3, monotrimethylsilanylmethyl ester of 2-cyano-5,5-diphenyl-2,4-pentadienoic acid] | 360 | 800 | 28 880 |

— patent US7432386B2, “Diarylbutadiene-substituted methyltrialkylsilanes and photoprotective compositions comprised thereof” (L'Oreal, priority 2003, dated 2008)
